Results on 3 compounds are retold here after ChEMBL document CHEMBL1140990, “Evaluation of alpha,beta-unsaturated ketone-based probes for papain-family cysteine proteases” (Bioorg Med Chem, 2009).

The target of test [1] is Cathepsin B (Mus musculus) (UniProt P10605). The experiment in a line: Binding affinity to cathepsin B in mouse spleen crude extracts at 500 nM. Format: tissue-based.
Test [2] has as its target Cathepsin B (Homo sapiens) (UniProt P07858). The experiment in a line: Binding affinity to cathepsin B in human MDA-MB-231 cell lysates. The class given is cell-free.
Test [3] deals with Procathepsin L (Homo sapiens) (UniProt P07711). The test can be described thus: Inhibition of human recombinant cathepsin L.
Sequence of Procathepsin L (Homo sapiens) (P07711 114-333 limits assumed): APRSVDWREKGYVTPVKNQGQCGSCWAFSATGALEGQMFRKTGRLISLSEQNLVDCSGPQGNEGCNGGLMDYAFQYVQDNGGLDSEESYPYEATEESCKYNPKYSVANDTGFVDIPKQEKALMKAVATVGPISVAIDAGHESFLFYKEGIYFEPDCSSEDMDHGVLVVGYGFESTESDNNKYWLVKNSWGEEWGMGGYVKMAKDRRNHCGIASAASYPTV
Test [4] addresses Cathepsin B (Homo sapiens) (UniProt P07858). The experiment in a line: Inhibition of human recombinant cathepsin B.
Test [5] has as its target Cathepsin B (Mus musculus) (UniProt P10605). The experiment in a line: Binding affinity to cathepsin B in mouse spleen crude extracts. The class given is tissue-based.
For test [6] the target is unchanged. The test can be described thus: Binding affinity to cathepsin B in wild type mouse NIH/3T3 cells. The class given is cell-based. As to conditions: NIH3T3.
The target of test [7] is T1, Procathepsin L (Mus musculus) (UniProt P06797).
T1 sequence (whole entry): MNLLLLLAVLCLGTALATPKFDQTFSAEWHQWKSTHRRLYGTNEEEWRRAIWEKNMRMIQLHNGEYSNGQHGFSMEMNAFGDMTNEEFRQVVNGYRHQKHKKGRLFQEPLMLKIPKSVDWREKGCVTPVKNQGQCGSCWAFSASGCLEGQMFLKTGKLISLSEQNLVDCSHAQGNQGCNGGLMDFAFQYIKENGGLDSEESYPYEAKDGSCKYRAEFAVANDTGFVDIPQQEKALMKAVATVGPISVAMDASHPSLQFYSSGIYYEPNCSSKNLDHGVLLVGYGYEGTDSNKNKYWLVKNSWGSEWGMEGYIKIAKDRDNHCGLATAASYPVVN
The test can be described thus: Binding affinity to cathepsin L in wild type mouse NIH/3T3 cells. Format: cell-based. As to conditions: NIH3T3.

The source made the active and inactive calls. The calls are words filed in the database; no cut-off is given here.

Sequence of Cathepsin B (Mus musculus) (P10605 80-333 limits assumed): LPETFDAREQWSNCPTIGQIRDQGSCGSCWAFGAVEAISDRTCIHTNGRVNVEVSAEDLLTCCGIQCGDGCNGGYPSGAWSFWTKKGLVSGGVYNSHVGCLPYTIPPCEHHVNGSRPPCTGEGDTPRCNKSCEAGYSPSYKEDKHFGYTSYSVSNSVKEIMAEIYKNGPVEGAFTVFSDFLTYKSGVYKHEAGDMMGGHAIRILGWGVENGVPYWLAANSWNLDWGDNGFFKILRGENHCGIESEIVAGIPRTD

As to `CC(=O)/C=C/[C@H](C)NC(=O)[C@H](Cc1ccccc1)NC(=O)CCOCCOCCOCCOCCNC(=O)CCCC[C@H]1SC[C@H]2NC(=O)N[C@H]21`, the result in test [1] and in test [2] was Active.
For the compound `CC(=O)/C=C/[C@H](C)NC(=O)[C@H](Cc1ccccc1)NC(=O)OCc1ccccc1`, the Activity came to 1.63e+06 M⁻¹ s⁻¹ in test [3] and 36700 M⁻¹ s⁻¹ in test [4].
`COc1ccc(-c2ccc3n2[B-](F)(F)[N+]2=C(C)C(CCC(=O)NCCCCCC(=O)N[C@@H](Cc4ccccc4)C(=O)N[C@@H](C)/C=C/C(C)=O)=C(C)C2=C3)cc1`: the outcome in test [5], in test [1], in test [6] and in test [7] was Active.
